Data set [1] deals with prostate cancer cell line DU-145. Nature of the data set: Cell death assay (Cell Counting Kit-8) on prostate cancer cells. It counts as cell-based. The method, then:
GnRH derivatives are clinically applied to the treatment of diseases including breast cancer, prostate cancer, endometriosis, central precocious puberty, and the like. The DU-145 cell line, which is a type of prostate cancer cells, was cultured in T75 flasks containing an adequate amount of RPIM 1640 culture medium (containing 10% FBS, penicillin/streptomycin, and 1% non-essential amino acids) in a sterile incubator having 5% CO2/95% air at 37° C. Cell death assay was performed using the Cell Counting Kit-8 (CCK-8, manufactured by DOJINDO). The […] cells were separated from the T75 flasks by trypsinization treatment and transferred to 96-well plates at a density of 1×10^4 cells/well, followed by incubation for one hour for attachment. Subsequently, the cells were treated with various concentrations of GnRH or GnRH derivatives, and control reagents. Specifically, 1% DMSO was used as a negative control for cell death while 0.1% SDS served as a positive control. After 48 hours of incubation, the existing culture medium was removed, and 100 μL of fresh culture medium and 10 μL of CCK-8 solution were applied to each well. Again, after 48 hours of incubation, the medium solution was replaced by 100 μL of fresh culture medium and 10 μL of CCK-8 solution. The cells were incubated for 4 hours, and then the absorbance was measured at 450 nm to assess cell viability.

A short description of data set [2]: Blood concentration and pharmacokinetics after single subcutaneous administration to rats (LC/MSMS). It is filed as in vivo, female SD rats. The conditions noted are these: rat. The method, then: Before administration and at 0.5, 1, 2, and 6 hours and on days 1, 3, 7, 10, 14, 21, and 28 after administration, blood samples were taken from the tail vein of the rats and measured for the blood concentrations of Leuprolide and GnRH derivatives, using LC/MSMS. If the concentration reached about 4 ng/mL at a specific time point, no measurements were further made for the next time point. The measurement results are graphically depicted in FIGS. 4 to 6. Based on the results, pharmacokinetic analysis was carried out by calculating the half-life (t1/2), clearance rate (CL), volume of distribution (Vd), time to reach the maximum concentration following drug administration (Tmax), maximum concentration following drug administration (Cmax), and systemic exposure to drug (AUCt). The analysis results are as follows.

The conditions of data set [3]: emulsion; same dose (Peng et al., 2010); cited from earlier work.
The conditions of data set [4]: cited from earlier work.
The mark [5] stands for this setting: female, SD, in vivo, sc, 12.5 mg/kg.
The mark [6] stands for this setting: female, SD, in vivo, sc, 12.5 mg/kg, blood concentration, Mean.

Consider seven compounds from US10994018B2, “Long-acting palmitic acid-conjugated GnRH derivative, and pharmaceutical composition containing same” (priority 2017, dated 2021).

Read-outs that look alike come from different tables or passages of the source. Where a SMILES comes first, the peptide text is derived from it. [ ]: non-standard residue; d: D form. The star is where a group is joined. Palmitoyl = CCCCCCCCCCCCCCCC(=O)*

As usually defined, the AUC(0-t) is exposure summed from dosing to a finite time, without extrapolation to infinity. The low end stands for less exposure, the high end for more exposure. What is called Cmax is the peak of the concentration-time curve. Usually Tmax stands for the time from dosing to the highest level. Broadly, the half-life is the time needed for the level to fall by half in the phase considered. High values mean slow loss, low ones fast loss.

Turning to `CCCCCCCCCCCCOS(=O)(=O)[O-].[Na+]` [0.1% SDS, reference compound], in data set [1] (DU-145 cells, positive control at 0.1%), the “Viability relative to control (%)” value is 21.7%.

Consider `CCNC(=O)[C@@H]1CCCN1C(=O)[C@H](CCCNC(=N)N)NC(=O)[C@H](CC(C)C)NC(=O)[C@@H](CC(C)C)NC(=O)[C@H](Cc1ccc(O)cc1)NC(=O)[C@H](CO)NC(=O)[C@H](Cc1c[nH]c2ccccc12)NC(=O)[C@H](Cc1c[nH]cn1)NC(=O)[C@@H]1CCC(=O)N1` [Leuprolide, pyroGlu-His-Trp-Ser-Tyr-DLeu-Leu-Arg-Pro-NHEt, reference compound], for which the “cell death rate on prostate cancer cells” value in data set [1] (DU-145 cells) was “about 10%”. Moreover, in data set [2] (setting [5]), the AUC(0-t) is 1.66 µg·h/mL, the Cmax amounted to 1.02 µg/mL, the time to peak (Tmax) is 28.8 min and the half-life is 43.2 min. In data set [2] (setting [6]), this compound registered a level at 0.5 h of 1.02 µg/mL, a level at 1 h of 0.769 µg/mL, a level at 2 h of 0.228 µg/mL and a level at 6 h of 0.00288 µg/mL. In data set [2] (in vivo, sc, 12.5 mg/kg), the “CL (clearance rate)” value is on record as 0.180 (mg/kg)/(ng/ml)/day and the “Vd (volume of distribution)” value was 0.007 (mg/kg)/(ng/ml).

`CCCCCCCCCCCCCCCC(=O)N[C@@H](CCC(N)=O)C(=O)N[C@@H](Cc1c[nH]cn1)C(=O)N[C@@H](Cc1c[nH]c2ccccc12)C(=O)N[C@@H](CO)C(=O)N[C@@H](Cc1ccc(O)cc1)C(=O)N[C@H](CC(C)C)C(=O)N[C@@H](CC(C)C)C(=O)N[C@@H](CCCNC(=N)N)C(=O)N1CCC[C@H]1C(=O)NCC` [Derivative P2, Palmitate-Gln-His-Trp-Ser-Tyr-DLeu-Leu-Arg-Pro-NHEt] (Palmitoyl-QHWSY[dL]LRP-NHEt): the “fold greater cytotoxic effects compared to Leuprolide or GnRH” value in data set [1] is on record as 7- to 7.5 fold. Besides, the level at 0.5 h in data set [2] (female, SD, blood, sc, 12.5 mg/kg, s.c. once 12.5 mg/kg, 0.5 hr., read-out: blood concentration, Mean) is 0.0118 µg/mL. For the same compound, the level at 1 h in data set [2] (female, SD, blood, sc, 12.5 mg/kg, s.c. once 12.5 mg/kg, 1 hr., read-out: blood concentration, Mean) was determined as 0.0169 µg/mL. Also, in data set [2] (female, SD, blood, sc, 12.5 mg/kg, s.c. once 12.5 mg/kg, 2 hr., read-out: blood concentration, Mean), the level at 2 h is 0.0291 µg/mL. Also, the level at 6 h in data set [2] (female, SD, blood, sc, 12.5 mg/kg, s.c. once 12.5 mg/kg, 6 hr., read-out: blood concentration, Mean) was found to be 0.0522 µg/mL. The same compound yielded a level at 24 h in data set [2] (female, SD, blood, sc, 12.5 mg/kg, s.c. once 12.5 mg/kg, 1 day) of 0.045 µg/mL. Further, the level at 168 h in data set [2] (female, SD, blood, sc, 12.5 mg/kg, s.c. once 12.5 mg/kg, 7 days) is 0.0119 µg/mL. Besides, in data set [2] (female, SD, blood, sc, 12.5 mg/kg, s.c. once 12.5 mg/kg, 10 days), the level at 240 h amounted to 0.00818 µg/mL. In addition, the level at 336 h in data set [2] (female, SD, blood, sc, 12.5 mg/kg, s.c. once 12.5 mg/kg, 14 days) turned out to be 0.00435 µg/mL. For the same compound, in data set [2] (s.c. once 12.5 mg/kg), the “CL (clearance rate)” value is on record as 0.051 (mg/kg)/(ng/ml)/day and the “Vd (volume of distribution)” value was 0.351 (mg/kg)/(ng/ml).

In the case of `CCCCCCCCCCCCCCCC(=O)N[C@@H](CCC(=O)O)C(=O)N[C@@H](Cc1c[nH]cn1)C(=O)N[C@@H](Cc1c[nH]c2ccccc12)C(=O)N[C@@H](CO)C(=O)N[C@@H](Cc1ccc(O)cc1)C(=O)N[C@H](CC(C)C)C(=O)N[C@@H](CC(C)C)C(=O)N[C@@H](CCCNC(=N)N)C(=O)N1CCC[C@H]1C(=O)NCC` [Derivative P3, Palmitate-Glu-His-Trp-Ser-Tyr-DLeu-Leu-Arg-Pro-NHEt] (Palmitoyl-EHWSY[dL]LRP-NHEt), the “fold greater cytotoxic effects compared to Leuprolide or GnRH” value in data set [1] is given as 7- to 7.5 fold.

Regarding dexamethasone palmitate, the “anti-inflammatory effect, fold higher than dexamethasone alone” value in data set [3] was 5.6 fold.

In the case of `CC(C)C[C@H](NC(=O)CNC(=O)[C@H](Cc1ccc(O)cc1)NC(=O)[C@H](CO)NC(=O)[C@H](Cc1c[nH]c2ccccc12)NC(=O)[C@H](Cc1cnc[nH]1)NC(=O)[C@@H]1CCC(=O)N1)C(=O)N[C@@H](CCCNC(=N)N)C(=O)N1CCC[C@H]1C(=O)NCC(N)=O` [GnRH], the “in vivo half-life in circulating blood” value in data set [4] is 2 to 4 min.

`CCCCCCCCCCCCCCCC(=O)N[C@@H](CCC(N)=O)C(=O)N[C@@H](Cc1c[nH]cn1)C(=O)N[C@@H](Cc1c[nH]c2ccccc12)C(=O)N[C@@H](CO)C(=O)N[C@@H](Cc1ccc(O)cc1)C(=O)N[C@H](CC(C)C)C(=O)N[C@@H](CC(C)C)C(=O)N[C@@H](CCCNC(=N)N)C(=O)N1CCC[C@H]1C(=O)NCC` [Derivative P4, Palmitate-Gln-His-Trp-Ser-Tyr-DLeu-Leu-Arg-Pro-NHEt] (Palmitoyl-QHWSY[dL]LRP-NHEt): the level at 504 h in data set [2] (female, SD, blood, sc, 12.5 mg/kg, s.c. once 12.5 mg/kg, 21 days) was found to be 0.00126 µg/mL. In data set [2] (s.c. once 12.5 mg/kg), the “CL (clearance rate)” value is 0.075 (mg/kg)/(ng/ml)/day and the “Vd (volume of distribution)” value is on record as 0.436 (mg/kg)/(ng/ml).
